# According to patent US10369187B2, “Peptide regulators of JNK family kinases” (Vanderbilt University, priority 2017, dated 2019):
# T1: MKK4 (Homo sapiens, UniProt P45985)
# T1 sequence (P45985 1-399): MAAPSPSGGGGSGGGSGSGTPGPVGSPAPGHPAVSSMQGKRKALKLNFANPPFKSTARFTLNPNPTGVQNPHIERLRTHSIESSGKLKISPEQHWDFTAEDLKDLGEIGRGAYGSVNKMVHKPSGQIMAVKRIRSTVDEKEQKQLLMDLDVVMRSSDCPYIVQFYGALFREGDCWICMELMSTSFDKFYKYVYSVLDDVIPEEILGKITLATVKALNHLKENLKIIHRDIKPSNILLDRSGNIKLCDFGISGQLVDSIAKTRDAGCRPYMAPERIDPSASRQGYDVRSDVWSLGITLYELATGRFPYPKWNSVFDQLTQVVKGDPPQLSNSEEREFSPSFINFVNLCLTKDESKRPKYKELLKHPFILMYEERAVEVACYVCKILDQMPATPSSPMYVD
# B1: arrestin-2: full-length non-visual arrestin-2 protein, does not promote JNK3 activation (protein, UniProt P17870 1-418, looked up)
# chain: MGDKGTRVFKKASPNGKLTVYLGKRDFVDHIDLVEPVDGVVLVDPEYLKERRVYVTLTCAFRYGREDLDVLGLTFRKDLFVANVQSFPPAPEDKKPLTRLQERLIKKLGEHAYPFTFEIPPNLPCSVTLQPGPEDTGKACGVDYEVKAFCAENLEEKIHKRNSVRLVIRKVQYAPERPGPQPTAETTRQFLMSDKPLHLEASLDKEIYYHGEPISVNVHVTNNTNKTVKKIKISVRQYADICLFNTAQYKCPVAMEEADDTVAPSSTFCKVYTLTPFLANNREKRGLALDGKLKHEDTNLASSTLLREGANREILGIIVSYKVKVKLVVSRGGLLGDLASSDVAVELPFTLMHPKPKEEPPHREVPEHETPVDTNLIELDTNDDDIVFEDFARQRLKGMKDDKEEEEDGTGSPRLNDR
# modifications: full-length
# Assays:
# [1] = tested on: ARR3-dependent activation of the JNK pathway; test: Suppression of ARR3-dependent JNK activation (peptide co-expressed with full-length ARR3, Western blot); assay type: cell-based; conditions: for JNK activity on co-expression with full-length ARR3, comparison of shorter peptides: Western blot
# Source text: FIG. 9. The ARR3-derived T1A15 peptide is capable of reducing ARR3-dependent activation of the JNK pathway. (A) Dose-dependent action of Venus-T1A15 on the JNK activity. Upper blot panel—T1A15 was expressed at increasing concentration with full-length ARR3. Cells expressing GFP (negative control) and full-length ARR3 only (positive control) are shown for comparison. Note the reduced activity of HA-JNK3α2 expressed in the cells as well as that of endogenous INK isoforms (p54 and p46 bands). The lower panels show corresponding expression of GFP, full-length ARR3 and increasing concentrations of Venus-T1A15. (B) Comparison of the activity of shorter ARR3-derived peptides. Three shorter peptides, T1A15, T1A14, and T1A13, were co-expressed with full-length ARR3, and the INK activity assessed by western blot.
# First, the action of arrestin-3-derived peptides expressed in cultured cells on JNK3 activity was investigated.
# WT hemiparkinsonian mice = test: L-DOPA-induced rotations in hemiparkinsonian WT mice; assay type: in vivo, mouse; conditions: peptide expressed under CMV promoter in striatal neurons, versus GFP
# Source text: FIG. 11. Inhibition of L-DOPA-induced rotations in WT mice by ARR3-derived peptide T1A15 inhibiting JNK3. The arrestin-3-derived peptide T1A15 expressed under CMV promoter in striatal neurons inhibited rotations in WT mice as compared to WT mice expressing GFP.
# (§1) The mice were rendered hemiparkinsonian by the unilateral injection of the dopaminergic neurotoxin 6-hydroxydopamine. Such animals develop contralateral rotations of increasing frequency in response to repeated administration of L-DOPA. ARR3 knockout mice (KO) have lower propensity than wild type (WT) animals to such rotations.
# [2] = tested on: ASK1-MKK4/7-JNK3 signaling cascade; test: In cell JNK3 activation assay (co-expression with HA-ASK1 and HA-JNK3α2, phospho-JNK Western blot); assay type: cell-based, African green monkey; conditions: for in cell JNK3α2 activation (phospho-JNK3 densitometry): Example 2, YFP/Venus constructs with HA-ASK1, HA-JNK3α2 in COS7 cells; for JNK3 phosphorylation in cells, HA-tagged arrestins and separated domains: co-expressed with ASK1 and JNK3 in COS7 cells
# Protocol: COS-7 African green monkey cells were maintained in DMEM supplemented with 10% heat-inactivated FBS (Invitrogen), penicillin, and streptomycin at 37° C. in a humidified incubator with 5% CO2. The cells were plated at 80-90% confluence and transfected using Lipofectamine 2000 (Invitrogen) according to the manufacturer's instructions. Cells were used 48 h post-transfection and serum-starved overnight before experiments.
# COS-7 cells were incubated with phosphatase inhibitors (50 mM NaF and 10 mM Na3VO4) in serum-free medium for 15 min at 37° C.; washed with cold PBS; and lysed with SDS lysis buffer containing 1% SDS, 10 mM Tris (pH7.4), 10 mM NaF, 100 μM Na3VO4, 2 mM EDTA, 2 mM benzamidine and 1 mM PMSF. JNKs activity was assayed by Western blotting using an antibody specific for phosphorylated JNK to detect phosphorylated (active) JNKs^17,20,23. Whole cell lysates were boiled for 5 min and centrifuged at 10,000×g for 10 min, and the supernatants were used for Western blotting. Protein was measured using the Bio-Rad Coomassie Blue assay. The proteins were resolved on 8% SD S-PAGE and transferred to PVDF membrane (Millipore, Bedford, Mass.). Blots were incubated with the primary antibodies (Cell Signaling Technology, Inc) anti-phospho-JNK, anti-JNK, anti-HA (6E2) (1:1000 to 1:5000), followed by appropriate HRP-conjugated secondary antibodies. Protein bands were detected by enhanced chemiluminescence (ECL, Pierce), followed by exposure to x-ray film. To quantify phospho-JNKs, serial dilutions of anisomycin (1 μg/ml)-stimulated HEK-A cell lysates were used to ensure that all samples were in linear range. The values for these proteins are expressed in arbitrary units.
# The JNK3 activation was next tested in cells (See FIG. 7). COS7 cells were transfected with HA-ASK1, HA-JNK3α2, and YFP-arrestin constructs to measure in cell JNK3α2 activation. Phospho-JNK3 is shown as the uppermost band in the Western analysis, and was analyzed by densitometric quantification using Quantity One software (quantification in bottom panel). […] The data were statistically analyzed by ANOVA with protein as the main factor. Significance of the difference from control (p values) is indicated.
# In Cell JNK3 Activation Assay COS7 African green monkey cells were sustained in DMEM solution containing 10% heat-inactivated FBS (Invitrogen), penicillin, and streptomycin at 37° C. and 5% CO2. Cells were transfected at 90-100% confluency in 6-well plates with pcDNA3-HA-ASK1 (0.4 ug), pcDNA3-HA-JNK3α2 (0.2 ug), and pcDNA3-Venus arrestin constructs (0.2-0.6 ug) at a 1:2 ratio of DNA:Lipofectamine 2000 (Invitrogen). At 48 hrs post-transfection, the cells were incubated with phosphatase inhibitors (20 mM NaF and 1 mM Na3VO4) in PBS for 15 mins, washed twice with cold PBS, and lysed using 50 mM Tris (pH 7.8), 2 mM EDTA, 250 mM NaCl, 10% Glycerol, 0.5% NP-40, 2 mM benzamide, and 1 mM PMSF. Protein concentration was measured using the Bio-Rad Quick Start™ Bovine Serum Albumin (BSA) Standard Set. The proteins were subjected to 10% SDS-PAGE and transferred to PVDF membrane (Millipore, Bedford, Mass.). Membranes were incubated with respective primary antibodies (Cell Signaling Technology, Inc.) anti-ASK1 (#3762S), anti-phospho-JNK (#9251), anti-SAPK/JNK (#9252P), anti-GST (#2625), or anti-HA (#3724), followed by the appropriate HRP-conjugated secondary antibodies. Bands were detected by x-ray film using enhanced chemiluminescence (ECL, Pierce) and quantification was done using the software Quantity One (BioRad).
# [3] = tested on: hemiparkinsonian ARR3 KO mice; test: L-DOPA-induced rotations in hemiparkinsonian ARR3 KO mice; assay type: in vivo, mouse
# Protocol: FIG. 10. Rescue of L-DOPA-induced rotations in ARR3 KO mice by T1A16. Data are shown as means±S.E.M. Mice were pre-tested for L-DOPA-induced rotations before receiving lentiviruses. Respective lentiviruses were injected into the dorsolateral striatum of ARR3 KO mice. WT mice received GFP. […] In contrast, selective expression of T1A16 in striatopallidal MSNs under control of the enkephaline (ENK) promoter was ineffective. […] Significance levels are by Bonferroni post hoc test across all testing sessions.
# Next, arrestin-3-derived peptides T1A16 and T1A15 were investigated for activity in the animal model of L-DOPA-induced dyskinesia. It was shown that the peptides expressed as Venus fusions in the motor striatum of hemiparkinsonian mice via lentivirus-mediated gene transfer modulate the manifestations of L-DOPA-induced dyskinesia (LID). The mice lacking ARR3 have reduced LID, and restoration of ARR3 into the motor striatum via lentivirus-mediated gene transfer rescues LID in these animals.
# as §1
# MKK4-JNK3 module = MKK4-JNK3 module (Homo sapiens, UniProt P45985+P53779); conditions: previously found, reference 20; cited from earlier work
# MKK4-JNK3 module, sequence (P53779 whole entry, one chain of several): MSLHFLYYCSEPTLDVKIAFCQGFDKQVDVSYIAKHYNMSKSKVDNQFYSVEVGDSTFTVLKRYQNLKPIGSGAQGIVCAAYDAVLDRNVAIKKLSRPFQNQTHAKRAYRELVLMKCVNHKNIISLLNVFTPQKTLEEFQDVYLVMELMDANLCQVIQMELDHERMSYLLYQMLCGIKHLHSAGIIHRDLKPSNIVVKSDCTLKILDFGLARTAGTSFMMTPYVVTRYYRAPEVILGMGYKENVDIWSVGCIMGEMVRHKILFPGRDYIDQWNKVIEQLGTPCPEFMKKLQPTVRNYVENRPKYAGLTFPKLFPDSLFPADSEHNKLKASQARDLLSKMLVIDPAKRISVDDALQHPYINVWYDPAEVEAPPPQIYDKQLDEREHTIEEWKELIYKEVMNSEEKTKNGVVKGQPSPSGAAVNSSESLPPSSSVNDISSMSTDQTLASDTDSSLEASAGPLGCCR
# MKK4 = molecular target: T1, MKK4; test: MBP pull-down of purified MKK4; assay type: binding; conditions: MBP pull-down, purified proteins
# Protocol: T1A was expressed in E. coli as an MBP-fusion and purified it on an amylose column^23. The ability of purified GST-MKK4 or GST-MKK7 (FIG. 1A) to bind MBP-T1A immobilized on an amylose column was tested in an in vitro pull-down assay, where MBP and MBP-arrestin-3 served as negative and positive controls, respectively (FIG. 1B). MBP-T1A, but not control MBP, effectively retained both kinases (FIG. 1B). […] Next, it was tested whether T1A binds the uppermost kinase in the cascade, ASK1. Because ASK1 is not available in purified form, HA-tagged ASK1 and YFP-tagged T1A (using YFP as a control) were co-expressed in COS7 cells, lysed the cells, and immunoprecipitated YFP constructs with anti-GFP antibody (FIG. 1C).
# To make MBP-fusions containing arrestin-2/3 elements, the cDNAs encoding arrestin fragments were subcloned into pMal-p2T (generous gift from Dr. Keiji Tanaka, Tokyo Institute of Medical Science) between Eco RI and Xho I sites in frame with MBP, as described^23. MBP-Arr3 (full-length arrestin-3) was created by subcloning the corresponding cDNA into pMal-p2T between Eco RI and Not I sites^23. All MBP-arrestin-3 fusion proteins contained the same […] (SEQ ID NO:29) linker between MBP and arrestin-3 or its fragments. The MBP protein used as negative control was purified using empty pMal-p2T vector containing the same linker with 10 additional residues: […] (SEQ ID NO:30). MBP fusions were purified, as described^23. MBP pull-down was performed, as described^23. Briefly, Indicated MBP fusions (10-30 μg in 50 μL 20 mM Tris/150 mM NaCl) were immobilized on amylose resin (25 μL, 50% slurry, New England Biolabs) for 1 h at 4° C. with slight rotation. Purified, as described^40, MKK4/7 (10 μg in 50 μL 20 mM Tris/150 mM NaCl) were added to the immobilized MBP fusions and rotated gently for 2 h at 4° C. Samples were transferred to centrifuge filters (Durapore®-PVDF-0.65 μm), washed three times with 50 mM HEPES-Na, pH 7.3, 150 mM NaCl. The proteins were eluted by 100 μl of elution buffer (wash buffer containing 50 mM maltose) by gentle rotation for 5 min at 4° C. Eluates were analyzed by SDS-PAGE and Western blotting.
# MKK7-JNK3 module = MKK7-JNK3 module (Homo sapiens, UniProt O14733+P53779); conditions: previously found, reference 20; cited from earlier work
# MKK7-JNK3 module, sequence (O14733 whole entry): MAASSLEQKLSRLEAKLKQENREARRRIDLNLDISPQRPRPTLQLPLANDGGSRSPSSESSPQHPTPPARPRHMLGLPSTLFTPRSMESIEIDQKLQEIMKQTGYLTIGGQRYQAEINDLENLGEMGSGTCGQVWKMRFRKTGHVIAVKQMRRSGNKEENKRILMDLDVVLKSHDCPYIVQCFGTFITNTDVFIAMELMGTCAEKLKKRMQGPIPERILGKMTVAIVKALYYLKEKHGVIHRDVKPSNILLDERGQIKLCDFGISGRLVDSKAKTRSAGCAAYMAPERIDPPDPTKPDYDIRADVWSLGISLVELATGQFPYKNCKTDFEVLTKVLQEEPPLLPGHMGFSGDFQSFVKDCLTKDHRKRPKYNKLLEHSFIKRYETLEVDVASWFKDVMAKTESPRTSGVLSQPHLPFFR
# MKK7-JNK3 module, sequence (P53779 whole entry): as the sequence (P53779 whole entry, one chain of several) above
molecule,measurement,setting,value
KKSSPNCKLTVYLG (bovine) [T1A14],"JNK activity on co-expression with full-length ARR3, comparison of shorter peptides",[1],marginally effective
TRVFKKSSPNCKLTV (bovine) [T1A15],L-DOPA-induced rotations in WT mice,WT hemiparkinsonian mice,able to suppress the rotational behavior
same,in cell JNK3α2 activation (phospho-JNK3 densitometry),[2],inhibit JNK3 activation
same,ARR3-dependent JNK activation at increasing peptide expression,[1]; Venus-T1A15 co-expressed with full-length ARR3,reducing arrestin-3-dependent activation of JNK3 as well as other JNK isoforms in a dose dependent manner
same,"JNK activity on co-expression with full-length ARR3, comparison of shorter peptides",[1],effectively suppressed
VFKKSSPNCKLTV (bovine) [T1A13],"JNK activity on co-expression with full-length ARR3, comparison of shorter peptides",[1],no effect
VFKKSSPNCKLTVYLG (bovine) [T1A16],in cell JNK3α2 activation (phospho-JNK3 densitometry),[2],facilitates JNK3 activation
same,JNK3 activation at increasing peptide expression,"[2]; Example 3, T1A16-Venus expressed in Cos7 cells",dose-dependently activates JNK3
same,"L-DOPA-induced rotations in ARR3 KO mice, expression in striatonigral MSNs","[3]; lentivirus, dynorphine (DYN) promoter",fully rescued rotations in A3KO mice
same,"L-DOPA-induced rotations in ARR3 KO mice, expression in striatopallidal MSNs","[3]; lentivirus, enkephaline (ENK) promoter",ineffective
same,L-DOPA-induced rotations in ARR3 KO mice,"[3]; peptide expressed in striatum via lentivirus, 6-hydroxydopamine lesion",fully restores rotations in ARR3 KO mice to the level of that in WT mice
"arrestin-3: full-length arrestin-3 (bovine) protein, scaffold of ASK1-MKK4/7-JNK3 cascade",in cell JNK3α2 activation (phospho-JNK3 densitometry),[2],facilitates JNK3 activation
same,"JNK3 phosphorylation in cells, YFP fusions",[2]; YFP fusions co-expressed with JNK3 and ASK1 in COS7 cells,increased the level of JNK3 phosphorylation
same,"JNK3 phosphorylation in cells, HA-tagged arrestins and separated domains",[2],significantly increases JNK3 phosphorylation in cells
same,optimal concentration for scaffolding MKK4-JNK3 module,MKK4-JNK3 module,~0.6 µM
same,"JNK activity on co-expression with full-length ARR3, comparison of shorter peptides",[1],induced the JNK activation
same,interaction with MKK4 compared with MKK7,MKK4,stronger interaction with MKK4 than with MKK7
same,optimal concentration for scaffolding MKK7-JNK3 module,MKK7-JNK3 module,~6 µM
B1,"JNK3 phosphorylation in cells, HA-tagged arrestins and separated domains",[2],does not
